Reference: US8920334B2, “Method of breath analysis for determining liver capacity or microcirculation using 13C-labeled methacetin substrate” (Freie Universitaet Berlin, priority 2005, dated 2014)

Tests used:
[1] = molecular target: T1, enzyme CYP1A2 in the liver (Homo sapiens, UniProt P05177); assay: 13C-methacetin breath test (LiMAx) before and after partial liver resection; assay type: in vivo; conditions: patients, mean
T1 construct: demethylated to paracetamol in a rapid one-step reaction by the enzyme CYP1A2 in the liver; from tissue; host or cells: liver of living patients (in vivo)
T1 sequence (P05177 1-516): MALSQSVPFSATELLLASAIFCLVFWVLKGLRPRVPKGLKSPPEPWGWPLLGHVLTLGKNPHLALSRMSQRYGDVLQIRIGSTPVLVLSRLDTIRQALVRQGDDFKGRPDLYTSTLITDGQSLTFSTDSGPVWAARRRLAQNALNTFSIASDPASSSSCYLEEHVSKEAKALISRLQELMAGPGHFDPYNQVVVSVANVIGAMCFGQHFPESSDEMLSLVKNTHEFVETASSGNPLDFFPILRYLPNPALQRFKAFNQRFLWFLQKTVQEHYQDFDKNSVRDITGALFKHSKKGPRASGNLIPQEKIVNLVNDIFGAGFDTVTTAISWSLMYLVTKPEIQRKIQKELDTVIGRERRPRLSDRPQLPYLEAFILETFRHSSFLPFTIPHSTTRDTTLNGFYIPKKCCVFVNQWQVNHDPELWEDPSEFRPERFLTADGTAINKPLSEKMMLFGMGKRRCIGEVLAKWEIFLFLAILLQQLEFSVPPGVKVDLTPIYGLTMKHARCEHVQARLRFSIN
Description: This object is achieved by an analysis method, for determining a functional parameter of an organ of a human or animal individual. According to this analysis method, the ^13CO2 content in the air exhaled by the individual is measured, the ^13CO2 in the body of the individual being formed enzymatically from a substrate that has been administered beforehand to the individual, and then being exhaled by the individual. The measurement of the ^13CO2 content in the air exhaled by the individual is carried out using a suitable measurement device. The maximum reaction rate of the substrate in the body of the individual is determined via a change of the measured ^13CO2 content in the air exhaled by the individual using zero-order enzyme kinetics. The analysis method according to the invention therefore proceeds from a consideration of enzyme kinetics.
In a particularly preferred embodiment of the invention, the maximum reaction rate (LiMAx) is calculated through the converted quantity of substrate per unit of time in μg/h/kg bodyweight at variable times at which the maximum value is reached, such that genuine quantification of the maximum functional liver capacity can be made. The calculation is carried out according to the following formula (1), which describes zero-order enzyme kinetics: […]
Here, δ^13C is the difference between the ^13CO2/^12CO2 ratio of the sample and the Pee Dee Belmite (PDB) standard in delta per mil, RPDB is the ^13CO2/^12CO2 ratio of the PDB standard (0.0112375), P is the CO2 production rate (300 mmol/h×surface area of body in m^2), M is the molecular weight of the substrate, and KG is the actual bodyweight of the individual in kg.
The inundation time is preferably used to assess the microcirculation in the liver, so as to be able to detect microcirculation disturbances. Assuming the quickest possible inundation by in particular intravenous bolus injection and substrate excess and the high first-pass effect of methacetin or another substrate, the hepatic microcirculation can be assessed particularly advantageously. The inundation time needed to reach the maximum reaction rate tvmax is determined, said inundation time lengthening in the presence of microcirculation disturbances, since in this case the substrate inundation is not uniformly or completely delayed in all areas of the liver. Liver perfusion can thus be assessed.
The rapid substrate inundation required for the enzyme-kinetic evaluation is ensured by the fact that ^13C methacetin is administered intravenously in a bolus. The intravenous bolus injection ensures an immediate and complete substrate inundation in the liver. The absorption of the test substance ^13C-methacetin is no longer the step that determines the reaction rate. With the preferred dose of 2 mg methacetin per kg bodyweight, a temporary enzyme utilization is also permitted in patients with a healthy liver by a short-term substrate excess. This permits the actual quantitative expressiveness, since zero-order enzyme kinetics are achieved, and only this permits a statement concerning the maximum functional capacity of an enzyme system.
In the context of a prospective study, a method, which is discussed in more detail below, was used to evaluate liver function before and after partial liver resection in a number of patients: • 1. […]

[2] = cited from earlier work

Row | inundation time (tvmax) until maximum reaction rate ([1]; after partial liver resection) [min] | inundation time (tvmax) until maximum reaction rate ([1]; before partial liver resection) [min] | maximum functional liver capacity (LiMAx) ([1]; post-operative day 1 (POD1) after partial liver resection) [µg/h/kg] | maximum functional liver capacity (LiMAx) ([1]; post-operative day 10 (POD10) after partial liver resection) [µg/h/kg] | maximum functional liver capacity (LiMAx) ([1]; pre-operative (before partial liver resection), intravenous 13C-methacetin solution) [µg/h/kg] | Structure (SMILES) | solubility ([2]; in water or in an aqueous buffer) | stability of aqueous solution (crystallization) ([2]; usually aqueous solution)
1 | 53.5 ± 7.51 | 11.9 ± 2.17 | 141 ± 13 | 249 ± 17 | 301 ± 24 | COc1ccc(NC(C)=O)cc1 [^13C-methacetin] | – | –
2 | – | – | – | – | – | COc1ccc(NC(C)=O)cc1 [methacetin] | extremely sparingly soluble | crystallizes out of a usually aqueous solution within a period of hours to days
